Test results: ChEMBL document CHEMBL1131796, “Design and synthesis of a novel synthetic NAPAP-penta-saccharide conjugate displaying a dual antithrombotic action” (Bioorg Med Chem Lett, 1999)
pIC50: −log10 of the molar value. Values belong to the compound of their own block, whether it stands above or below them.

Assays:
[1] = target: Prothrombin (Homo sapiens, UniProt P00734); test: In vitro anti-thrombin activity was determined
[2] = In vitro half life in rat; conditions: in vivo
[3] = target: T1, Antithrombin-III (Homo sapiens, UniProt P01008); test: In vitro antithrombin III (ATIII)-mediated anti-Xa activity was determined
[4] = target: T1, Antithrombin-III; test: (§1) Antithrombin III (ATIII)-mediated anti-Xa activity was determined
[5] = target: T1, Antithrombin-III; test: as §1; remark: listed apart in the source

T1 sequence (P01008 whole entry): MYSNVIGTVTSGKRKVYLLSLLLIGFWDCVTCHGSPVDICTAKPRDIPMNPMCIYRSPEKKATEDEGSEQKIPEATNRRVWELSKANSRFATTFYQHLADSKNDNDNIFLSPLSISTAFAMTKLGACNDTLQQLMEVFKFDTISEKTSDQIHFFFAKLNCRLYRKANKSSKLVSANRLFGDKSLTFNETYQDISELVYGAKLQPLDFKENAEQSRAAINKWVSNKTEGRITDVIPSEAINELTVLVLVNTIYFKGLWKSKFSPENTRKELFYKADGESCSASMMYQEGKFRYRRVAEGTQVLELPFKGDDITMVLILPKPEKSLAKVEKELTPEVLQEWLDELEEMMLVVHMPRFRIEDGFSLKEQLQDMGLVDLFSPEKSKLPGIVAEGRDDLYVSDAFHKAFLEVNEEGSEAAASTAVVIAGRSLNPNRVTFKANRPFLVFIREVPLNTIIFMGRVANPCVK

pIC50 [1]: 6.46
half-life [2]: 1.5 h
Activity [3]: 885 U mg-1
SMILES: CO[C@H]1O[C@H](COS(=O)(=O)O)[C@@H](O[C@@H]2O[C@@H](C(=O)O)[C@@H](O[C@H]3O[C@H](COS(=O)(=O)O)[C@@H](O[C@@H]4O[C@H](C(=O)O)[C@@H](O[C@H]5O[C@H](COS(=O)(=O)O)[C@@H](OCCOCCOCCOCCNC(=O)c6ccc(NC(=O)CSC[C@H](NS(=O)(=O)c7ccc8ccccc8c7)C(=O)NC(Cc7ccc(C(=N)N)cc7)C(=O)N7C=CCCC7)cc6)[C@H](OS(=O)(=O)O)[C@H]5OS(=O)(=O)O)[C@H](OC)[C@H]4OS(=O)(=O)O)[C@H](OS(=O)(=O)O)[C@H]3OS(=O)(=O)O)[C@H](OC)[C@H]2OS(=O)(=O)O)[C@H](OS(=O)(=O)O)[C@H]1OS(=O)(=O)O (stereo not given in full)

pIC50 [4]: 6.24
SMILES: N=C(N)c1ccc(C[C@@H](NC(=O)CNS(=O)(=O)c2ccc3ccccc3c2)C(=O)N2CCCCC2)cc1

Activity [5]: 1160 U mg-1
SMILES: CO[C@@H]1OC(COS(=O)(=O)O)[C@H](O[C@@H]2OC(C(=O)O)[C@H](O[C@@H]3OC(COS(=O)(=O)O)[C@H](O[C@@H]4OC(C(=O)O)[C@H](O[C@@H]5OC(COS(=O)(=O)O)[C@@H](O)[C@@H](OS(=O)(=O)O)C5OS(=O)(=O)O)[C@@H](OC)C4OS(=O)(=O)O)[C@@H](OS(=O)(=O)O)C3OS(=O)(=O)O)[C@@H](OC)C2OS(=O)(=O)O)[C@@H](OS(=O)(=O)O)C1OS(=O)(=O)O (stereo not given in full)
